We go through nine molecules from publication PMC6615261, “Repurposing Azithromycin and Rifampicin Against Gram-Negative Pathogens by Combination With Peptidomimetics” (Frontiers in Cellular and Infection Microbiology, 2019).

The subject of assay [1] is K. pneumoniae ST258. Nature of the assay: Potentiation of additional antibiotics (COMPAN1F plates), MIC. The assay is classed as cell-based, Klebsiella pneumoniae. Particulars: for MIC of antibiotic in presence of peptidomimetic 1: + 1 μM peptidomimetic 1; for MIC of antibiotic in presence of peptidomimetic 15: + 1 μM peptidomimetic 15; for MIC of antibiotic in presence of peptidomimetic 26: + 1 μM peptidomimetic 26; for MIC: Klebsiella pneumoniae, no peptidomimetic, read-out: MIC of antibiotic alone. The method, then: (§1) Minimal inhibitory concentrations (MICs) of peptidomimetics, antibiotics and their combinations were determined by broth microdilution according to the Clinical Laboratory Standards Institute performance standards (Clinical and Laboratory Standards Institute, [2013]). […] Since rifampicin and azithromycin mainly are used to treat infections with Gram-positive pathogens only CLSI clinical breakpoints were available for such bacteria. […] Potentiation of additional antibiotics by peptidomimetics was determined by using commercial 96-well plates containing varied concentrations of standard antibiotics (COMPAN1F; Trek Diagnostic Systems Inc.). The peptidomimetics were added immediately prior to inoculation with pathogen, and then MICs were determined as above. The MICs of peptidomimetic/antibiotic combinations were determined according to the method above, and the concentration ratios were selected based upon checkerboard results with 2:1 and 1:4 ratio of peptidomimetic with rifampicin or azithromycin, respectively. Minimal bactericidal concentrations (MBCs) were determined by using growth-curve assay plates. MIC plates were prepared as above, and then the plates were incubated at 37°C with continuous shaking. Growth was recorded at 10 min intervals as optical density (OD) at 600 nm during 24 h. At 24 h, for wells without growth, a sample was diluted 10-fold in sterile saline (0.9% sodium chloride) and plated onto MHA, following CLSI guidelines (Clinical and Laboratory Standards Institute, [1999]).

The next assay deals with E. coli ST131. The assay is described as above. Type of assay: cell-based, Escherichia coli. The conditions noted are these: for MIC of antibiotic in presence of peptidomimetic 26: + 0.25 μM peptidomimetic 26; for MIC of antibiotic in presence of peptidomimetic 1: + 0.5 μM peptidomimetic 1; for MIC of antibiotic in presence of peptidomimetic 15: + 0.5 μM peptidomimetic 15; for MIC: Escherichia coli, no peptidomimetic, read-out: MIC of antibiotic alone. As for the experimental part: as §1

A further assay concerns MDR E. coli ST131. Nature of the assay: Screening of peptidomimetic-antibiotic combinations (growth / growth inhibition). Type of assay: cell-based, Escherichia coli. On the set-up: key to Growth in combination with RIF / Growth in combination with AZM: Growth (+); growth inhibition (–). The conditions noted are these: for Growth in combination with AZM: peptidomimetic 0.5 μM + azithromycin 1 μg/mL; for Growth in combination with RIF: peptidomimetic 0.5 μM + rifampicin 0.5 μg/mL. As for the experimental part:
as §1

Assay [2] has as its system K. pneumoniae ST258. The assay is described as above. Type of assay: cell-based, Klebsiella pneumoniae. On the set-up: key to Growth in combination with RIF / Growth in combination with AZM: Growth (+); growth inhibition (–). The conditions noted are these: for Growth in combination with AZM: peptidomimetic 0.5 μM + azithromycin 1 μg/mL; for Growth in combination with RIF: peptidomimetic 0.5 μM + rifampicin 0.5 μg/mL. The method, then:
as §1

In general, MIC refers to the least concentration at which growth counts as inhibited.

`NCC[C@H](O)C(=O)N[C@@H]1C[C@H](N)[C@@H](O[C@H]2O[C@H](CN)[C@@H](O)[C@H](O)[C@H]2O)[C@H](O)[C@H]1O[C@H]1O[C@H](CO)[C@@H](O)[C@H](N)[C@H]1O` [Amikacin]: in the assay on K. pneumoniae ST258 [1], the “MIC of antibiotic in presence of peptidomimetic 1” value came out at 32 µg/mL, the “MIC of antibiotic in presence of peptidomimetic 15” value (from here on “MIC … of peptidomimetic 15”) stood at 32 µg/mL, the “MIC of antibiotic in presence of peptidomimetic 26” value (“MIC … of peptidomimetic 26” below) worked out at 16 µg/mL and the MIC stood at 32 µg/mL. Moreover, in the assay with E. coli ST131, the “MIC … of peptidomimetic 26” value came to 8 µg/mL, the “MIC of antibiotic in presence of peptidomimetic 1” value was greater than 32 µg/mL, the “MIC … of peptidomimetic 15” value came to 8 µg/mL and the MIC came to 16 µg/mL.

On to `CC1(C)S[C@@H]2[C@H](NC(=O)[C@H](N)c3ccccc3)C(=O)N2[C@H]1C(=O)O` [Ampicillin], for which, in the assay on K. pneumoniae ST258 [1], the “MIC of antibiotic in presence of peptidomimetic 1” value was greater than 16 µg/mL, the “MIC … of peptidomimetic 15” value is greater than 16 µg/mL, the “MIC … of peptidomimetic 26” value was greater than 16 µg/mL and the MIC is greater than 16 µg/mL. In the assay on E. coli ST131, the “MIC … of peptidomimetic 26” value is greater than 16 µg/mL, the “MIC of antibiotic in presence of peptidomimetic 1” value was greater than 16 µg/mL, the “MIC … of peptidomimetic 15” value was greater than 16 µg/mL and the MIC is greater than 16 µg/mL.

Consider `Cc1nnc(SCC2=C(C(=O)O)N3C(=O)[C@@H](NC(=O)Cn4cnnn4)[C@H]3SC2)s1` [Cefazolin], for which, in the assay with K. pneumoniae ST258 [1], the “MIC of antibiotic in presence of peptidomimetic 1” value was greater than 16 µg/mL, the “MIC … of peptidomimetic 15” value is greater than 16 µg/mL, the “MIC … of peptidomimetic 26” value was greater than 16 µg/mL and the MIC was greater than 16 µg/mL. In the assay with E. coli ST131, the “MIC … of peptidomimetic 26” value is greater than 16 µg/mL, the “MIC of antibiotic in presence of peptidomimetic 1” value is greater than 16 µg/mL, the “MIC … of peptidomimetic 15” value is greater than 16 µg/mL and the MIC is greater than 16 µg/mL.

For “Pam-(Lys-βNspe-hArg-βNspe)-NH2 [Peptidomimetic 9]”, the “Potentiation in the screening, rifampicin or azithromycin” value in the assay with MDR E. coli ST131 (0.5 μM peptidomimetic) and with K. pneumoniae ST258 [2] (0.5 μM peptidomimetic) was “did not exhibit any potentiation activity” in each case. Also, the “Growth in combination with AZM” value in the assay with MDR E. coli ST131 and in the assay on K. pneumoniae ST258 [2] was “+” throughout. Also, the “Growth in combination with RIF” value in the assay with MDR E. coli ST131 and in the assay on K. pneumoniae ST258 [2] was “+” throughout.

Take “Pam-[(S)-Aoc]-(Lys-βNphe)6-NH2 [Peptidomimetic 11]”: in the assay on MDR E. coli ST131, the “Growth in combination with AZM” value was “+” and the “Growth in combination with RIF” value is on record as “+”. Also, in the assay on K. pneumoniae ST258 [2], the “Growth in combination with AZM” value is “+” and the “Growth in combination with RIF” value was “+”.

On to R(Tbt)R(NPhe) [Peptidomimetic 39], for which, in the assay with MDR E. coli ST131, the “Growth in combination with AZM” value is listed as “+” and the “Growth in combination with RIF” value is reported as “+”. Further, in the assay on K. pneumoniae ST258 [2], the “Growth in combination with AZM” value is “+” and the “Growth in combination with RIF” value was “+”.

Regarding R(Tbt)R(hPhe)-NH2 [Peptidomimetic 38], in the assay with MDR E. coli ST131, the “Growth in combination with AZM” value was “+” and the “Growth in combination with RIF” value is “+”. Moreover, in the assay on K. pneumoniae ST258 [2], the “Growth in combination with AZM” value is on record as “+” and the “Growth in combination with RIF” value was “+”.

“VNW(NLys)2VL(NLys)2II(NLys)VA(NLys)-NH2 [Peptidomimetic 30]”: in the assay with MDR E. coli ST131, the “Growth in combination with AZM” value was “+” and the “Growth in combination with RIF” value is given as “+”. For the same molecule, in the assay with K. pneumoniae ST258 [2], the “Growth in combination with AZM” value is listed as “+” and the “Growth in combination with RIF” value was “+”.

Turning to “p-CF3-benzoyl-(Lys-Phe)8-NH2 [Peptidomimetic 23]”, in the assay on MDR E. coli ST131, the “Growth in combination with AZM” value is “+” and the “Growth in combination with RIF” value is on record as “+”. In the assay on K. pneumoniae ST258 [2], the “Growth in combination with AZM” value is on record as “+” and the “Growth in combination with RIF” value is listed as “+”.
